Each structure is given as a SMILES string. Counter-ions that a name gives are not always drawn. Like-named read-outs stand apart in the source and are kept apart here.

Common to all, as to assay type: cell-based
Assay [1] relates to human lung cancer cell line H1299. The assay is described as follows: Caspase cascade activation in H1299 cells. As to conditions: NCI-H1299, 24 h, read-out: Caspase activation Potency EC50 H1299 (24 h). On the procedure:
(§1) Human breast cancer cell line T-47D, human lung cancer cell line H1299, human hepatocellular carcinoma cell line SNU398, human colon carcinoma cell line HCT116 were grown according to media component mixtures designated by American Type Culture Collection+10% FCS (Invitrogen Corporation), in a 5% CO2-95% humidity incubator at 37° C. T-47D and H1299 cells were maintained at a cell density between 50 and 80% confluency at a cell density of 0.1 to 0.6×10^6 cells/mL. Cells were harvested at 600×g and resuspended at 0.65×10^6 cells/mL into appropriate media+10% FCS. An aliquot of 22.5 μL of cells was added to a well of a 384-well microtiter plate containing 2.5 μL of a 10% DMSO in RPMI-1640 media solution containing 0.16 to 100 μM of N-(2,5-dimethoxyphenyl)-2-methylthieno[3,2-d]pyrimidin-4-amine or other test compound (0.016 to 10 μM final). An aliquot of 22.5 μL of cells was added to a well of a 384-well microtiter plate containing 2.5 μL of a 10% DMSO in RPMI-1640 media solution without test compound as the control sample. The samples were mixed by agitation and then incubated at 37° C. for 24 h or 48 h in a 5% CO2-95% humidity incubator. After incubation, the samples were removed from the incubator and 25 μL of a solution containing 14 μM of N-(Ac-DEVD)-N′-ethoxycarbonyl-R110 (SEQ ID NO.:1) fluorogenic substrate (Cytovia, Inc.; WO99/18856), 20% sucrose (Sigma), 20 mM DTT (Sigma), 200 mM NaCl (Sigma), 40 mM Na PIPES buffer pH 7.2 (Sigma), and 500 μg/mL lysolecithin (Calbiochem) was added. The samples were mixed by agitation and incubated at room temperature. Using a fluorescent plate reader (Model SPECTRAfluor Plus, Tecan), an initial reading (T=0) was made approximately 1-2 min after addition of the substrate solution, employing excitation at 485 nm and emission at 530 nm, to determine the background fluorescence of the control sample. After the 3 h incubation, the samples were read for fluorescence as above (T=3 h).
(§2) The Relative Fluorescence Unit values (RFU) were used to calculate the sample readings as follows: RFU(T=3h)−Control RFU(T=O)=Net RFU(T=3h)
(§3) The activity of caspase cascade activation was determined by the ratio of the net RFU value for N-(2,5-dimethoxyphenyl)-2-methylthieno[3,2-d]pyrimidin-4-amine or other test compound to that of control samples. The EC50 (nM) was determined by a sigmoidal dose-response calculation (Prism 3.0, GraphPad Software Inc.).

The subject of assay [2] is human hepatocellular carcinoma cell line SNU398. The assay is described as follows: Caspase cascade activation in SNU398 cells. As to conditions: Homo sapiens, SNU-398, 48 h, read-out: Caspase activation Potency EC50 SNU398 (48 h). On the procedure: as §1, §2, §3
Assay [3] concerns human colon carcinoma cell line HCT116. The assay is described as follows: Caspase cascade activation in HCT116 cells. The settings on record: Homo sapiens, HCT-116, 48 h, read-out: Caspase activation Potency EC50 HCT116 (48 h). On the procedure: as §1, §2, §3
Assay [4] has as its system human breast cancer cell line T-47D. The assay is described as follows: Caspase cascade activation (DEVD-R110 fluorogenic substrate) in T-47D cells. The settings on record: Homo sapiens, T47D. As to the method: as §1, §2, §3
The mark [5] stands for this setting: 24 h, T47D cells, 24 h, read-out: Caspase activation Potency EC50 T47D (24 h).
The mark [6] stands for this setting: 48 h, T-47D cells, 48 h, read-out: Caspase activation Potency EC50 T-47D (48 h).

Consider `COc1ccc(Nc2nc(C)nc3scc(C)c23)cc1` [Example 13, N-(4-Methoxyphenyl)-2,5-dimethylthieno[2,3-d]pyrimidin-4-amine hydrochloride], for which the EC50 in assay [1], in assay [2], in assay [3], in assay [4] (setting [5]) and in assay [4] (setting [6]) was > 10 µM throughout.
In the case of `COc1ccc(OC)c(Nc2ncnc3sc(C)c(C)c23)c1` [Example 34, N-(2,5-Dimethoxyphenyl)-5,6-dimethylthieno[2,3-d]pyrimidin-4-amine], the EC50 in assay [1], in assay [2], in assay [3], in assay [4] (setting [5]) and in assay [4] (setting [6]) was > 10 µM throughout.
With `COc1ccc(OC)c(Nc2nc(SC)nc3ccsc23)c1` [Example 27, N-(2,5-Dimethoxyphenyl)-2-(methylthio)thieno[3,2-d]pyrimidin-4-amine], the EC50 in assay [1] is 0.041 µM; in assay [2], 0.206 µM; in assay [3] it was 0.319 µM; in assay [4] (setting [5]) it was 0.02 µM; in assay [4] (setting [6]), 0.036 µM.
The matching figures for `COc1ccc(OC)c(Nc2ncnc3c(C)c(I)sc23)c1` [Example 18, 6-Iodo-N-(2,5-dimethoxyphenyl)-7-methylthieno[3,2-d]pyrimidin-4-amine hydrochloride]: 2.79 µM, > 10 µM, > 10 µM, 0.071 µM and 0.171 µM.
As for `CCOC(=O)C=Cc1ccc(Nc2ncnc3ccsc23)cc1` [Example 33, 3-[4-(Thieno[3,2-d]pyrimidin-4-ylamino)-phenyl]acrylic acid ethyl ester], the EC50 in assay [1], in assay [2], in assay [3], in assay [4] (setting [5]) and in assay [4] (setting [6]) was > 10 µM each time.
For `Cc1cc(Nc2ncnc3ccsc23)no1` [Example 21, N-(5-Methylisoxazol-3-yl)thieno[3,2-d]pyrimidin-4-amine hydrochloride], the EC50 in assay [1], in assay [2], in assay [3], in assay [4] (setting [5]) and in assay [4] (setting [6]) was > 10 µM each time.
For `COc1cccc(Nc2ncnc3ccsc23)c1OC` [Example 9, N-(2,3-Dimethoxyphenyl)thieno[3,2-d]pyrimidin-4-amine hydrochloride], the EC50 in assay [1], in assay [2], in assay [3], in assay [4] (setting [5]) and in assay [4] (setting [6]) was > 10 µM throughout.
`c1nc(Nc2ccc3[nH]ccc3c2)c2sccc2n1` [Example 24, N-(1H-Indol-5-yl)thieno[3,2-d]pyrimidin-4-amine]: the EC50 in assay [1], in assay [2], in assay [3], in assay [4] (setting [5]) and in assay [4] (setting [6]) was > 10 µM in each case.
For the molecule `COc1ccc(C(=O)O)cc1Nc1ncnc2ccsc12` [Example 41, 4-Methoxy-3-(thieno[3,2-d]pyrimidin-4-ylamino)-benzoic acid], the EC50 in assay [1], in assay [2], in assay [3], in assay [4] (setting [5]) and in assay [4] (setting [6]) was > 10 µM throughout.
Turning to `COc1cc(Nc2ncnc3ccsc23)cc(OC)c1OC` [Example 10, N-(3,4,5-Trimethoxyphenyl)thieno[3,2-d]pyrimidin-4-amine hydrochloride], the EC50 came out at 5.02 µM in assay [1]; 1.05 µM in assay [2]; 5 µM in assay [3]; 0.065 µM in assay [4] (setting [5]); 0.072 µM in assay [4] (setting [6]).
Take `CCOc1ccc(OCC)c(Nc2ncnc3ccsc23)c1` [Example 36, N-(2,5-Diethoxyphenyl)thieno[3,2-d]pyrimidin-4-amine]: the EC50 in assay [1] was 5.09 µM; in assay [2] it was 5.18 µM; in assay [3] it was > 10 µM; in assay [4] (setting [5]), > 10 µM; in assay [4] (setting [6]) it was 0.873 µM.
As for `COc1ccc(OC)c(Nc2ncnc3cc(-c4ccccc4)sc23)c1` [Example 32, N-(2,5-Dimethoxyphenyl)-6-phenylthieno[3,2-d]pyrimidin-4-amine], the EC50 in assay [1] worked out at 1.42 µM; in assay [2], 1.6 µM; in assay [3], 4.25 µM; in assay [4] (setting [5]) it was 2.07 µM; in assay [4] (setting [6]), 4.01 µM.
Regarding `COc1ccc(OC)c(Nc2ncnc3cc(I)sc23)c1` [Example 17, 6-Iodo-N-(2,5-dimethoxyphenyl)thieno[3,2-d]pyrimidin-4-amine hydrochloride], the EC50 in assay [1] stood at 0.299 µM; in assay [2], 0.534 µM; in assay [3] it was 0.346 µM; in assay [4] (setting [5]), 0.036 µM; in assay [4] (setting [6]), 0.105 µM.
The matching figures for `COc1ccc(N)cc1Nc1ncnc2ccsc12` [Example 72, N-(5-Amino-2-methoxyphenyl)thieno[3,2-d]pyrimidin-4-amine]: > 10 µM, > 10 µM, > 10 µM, > 10 µM and > 10 µM.
`COc1ccc(Oc2ccccc2)cc1Nc1ncnc2ccsc12` [Example 38, N-(2-Methoxy-5-phenoxyphenyl)thieno[3,2-d]pyrimidin-4-amine]: the EC50 in assay [1], in assay [2], in assay [3], in assay [4] (setting [5]) and in assay [4] (setting [6]) was > 10 µM throughout.
Consider `COc1cccc(C)c1Nc1ncnc2ccsc12` [Example 30, N-(2-Methoxy-6-methylphenyl)thieno[3,2-d]pyrimidin-4-amine], for which the EC50 in assay [1] is 5.11 µM; in assay [2], > 10 µM; in assay [3] it was > 10 µM; in assay [4] (setting [5]) it was > 10 µM; in assay [4] (setting [6]) it was > 10 µM.
As for `COc1ccc(Cl)cc1Nc1ncnc2ccsc12` [Example 39, N-(5-Chloro-2-methoxyphenyl)thieno[3,2-d]pyrimidin-4-amine], the EC50 was > 10 µM in assay [1]; > 10 µM in assay [2]; > 10 µM in assay [3]; > 10 µM in assay [4] (setting [5]); 6.9 µM in assay [4] (setting [6]).

Usually EC50 stands for the concentration giving half of the maximal effect.

(Values after patent US20070099877A1, “N-aryl-thienopyrimidin-4-amines and analogs as activators of caspases and inducers of apoptosis and the use thereof” (Cytovia, Inc., priority 2005, published 2007).)
